Key:
Conditions in all cases: compound at 10 μM
Human δ-opioid (DOP) = target: T1, Human δ-opioid (DOP) (Homo sapiens, UniProt P41143); experiment: Radioligand binding, human δ-opioid (DOP) membranes, FlashPlate, [3H]-Bremazocine
T1 construct: purchased Perkin Elmer Biosignal
How it was run: (§1)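 Cloned human receptor membranes were coated onto FlashPlate wells and incubated with radioligand and compound (added from a 0.5 mM DMSO daughter plate) for 1 hour at room temperature in the dark. Scintillation counting gave percent inhibition, with DMSO defining total and reference ligand defining non-specific binding.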

Human κ-Opioid (KOP) = target: T2, Human κ-Opioid (KOP) (Homo sapiens, UniProt P41145); experiment: Radioligand binding, human κ-opioid (KOP) membranes, filtration, [3H]-Diprenorphine
T2 construct: purchased Perkin Elmer Biosignal
T2 sequence (P41145 whole entry): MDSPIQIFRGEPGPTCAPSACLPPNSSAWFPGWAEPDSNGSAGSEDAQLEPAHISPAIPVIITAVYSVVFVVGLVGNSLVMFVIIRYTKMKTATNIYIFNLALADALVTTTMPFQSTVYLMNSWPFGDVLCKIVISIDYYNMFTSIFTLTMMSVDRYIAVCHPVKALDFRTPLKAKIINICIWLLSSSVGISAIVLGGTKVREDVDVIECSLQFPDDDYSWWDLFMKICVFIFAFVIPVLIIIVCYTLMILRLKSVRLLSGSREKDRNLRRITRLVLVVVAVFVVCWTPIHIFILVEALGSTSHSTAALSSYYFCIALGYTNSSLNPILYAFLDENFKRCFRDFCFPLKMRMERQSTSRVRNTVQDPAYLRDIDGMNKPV
How it was run: (§2)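 Membranes from cloned human receptors were incubated with compound and radioligand for 1 hour at room temperature. Bound ligand was collected on 0.3% PEI-soaked filters, washed with cold 50 mM Tris-HCl pH 7.4, and counted by scintillation. Percent inhibition was computed against DMSO totals and reference-ligand nonspecific wells.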

Human Melanocortin (MC3) = target: T3, Human Melanocortin (MC3) (Homo sapiens, UniProt P41968); experiment: Radioligand binding, human melanocortin MC3 membranes, FlashPlate, [125I]-NDP-αMSH
T3 construct: purchased Perkin Elmer Biosignal
T3 sequence (P41968 whole entry): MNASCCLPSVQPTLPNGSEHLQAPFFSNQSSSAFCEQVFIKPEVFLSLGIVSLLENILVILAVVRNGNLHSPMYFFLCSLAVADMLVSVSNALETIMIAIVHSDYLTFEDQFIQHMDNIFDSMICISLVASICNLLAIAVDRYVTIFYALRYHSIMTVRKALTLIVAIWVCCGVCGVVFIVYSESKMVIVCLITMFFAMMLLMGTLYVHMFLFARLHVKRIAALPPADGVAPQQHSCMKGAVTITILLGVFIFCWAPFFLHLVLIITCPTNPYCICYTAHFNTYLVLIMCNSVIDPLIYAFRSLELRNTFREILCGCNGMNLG
How it was run: as §1

Human Melanocortin (MC4) = target: T4, Human Melanocortin (MC4) (Homo sapiens, UniProt P32245); experiment: Radioligand binding, human melanocortin MC4 membranes, FlashPlate, [125I]-NDP-αMSH
T4 construct: purchased Perkin Elmer Biosignal
T4 sequence (P32245 whole entry): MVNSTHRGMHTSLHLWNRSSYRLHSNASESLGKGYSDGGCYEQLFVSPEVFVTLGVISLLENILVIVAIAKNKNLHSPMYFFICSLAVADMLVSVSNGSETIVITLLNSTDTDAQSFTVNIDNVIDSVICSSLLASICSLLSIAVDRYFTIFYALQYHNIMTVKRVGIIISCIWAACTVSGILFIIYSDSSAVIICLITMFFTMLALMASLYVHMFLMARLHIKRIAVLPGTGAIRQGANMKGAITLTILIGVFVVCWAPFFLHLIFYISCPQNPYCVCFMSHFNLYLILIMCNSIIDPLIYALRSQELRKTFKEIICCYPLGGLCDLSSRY
How it was run: as §1

Human melanocortin (MC5) = target: T5, Human melanocortin (MC5) (Homo sapiens, UniProt P33032); experiment: Radioligand binding, human melanocortin MC5 membranes, FlashPlate, [125I]-NDP-αMSH
T5 construct: purchased Perkin Elmer Biosignal
T5 sequence (P33032 whole entry): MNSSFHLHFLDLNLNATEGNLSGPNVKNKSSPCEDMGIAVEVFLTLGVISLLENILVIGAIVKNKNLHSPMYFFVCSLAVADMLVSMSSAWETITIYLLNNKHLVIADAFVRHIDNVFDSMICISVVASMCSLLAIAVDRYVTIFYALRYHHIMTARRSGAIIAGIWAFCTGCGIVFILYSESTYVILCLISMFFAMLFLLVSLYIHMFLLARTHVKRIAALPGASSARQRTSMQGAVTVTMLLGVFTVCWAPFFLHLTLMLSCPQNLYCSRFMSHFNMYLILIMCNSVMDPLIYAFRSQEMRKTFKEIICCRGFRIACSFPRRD
How it was run: as §1

[1] = target: T6, Human melanin-concentrating hormone (MCH1) (Homo sapiens, UniProt Q99705); experiment: Radioligand binding, human melanin-concentrating hormone MCH1 membranes, FlashPlate, [125I]-S36057
T6 construct: purchased Perkin Elmer Biosignal
T6 sequence (Q99705 whole entry): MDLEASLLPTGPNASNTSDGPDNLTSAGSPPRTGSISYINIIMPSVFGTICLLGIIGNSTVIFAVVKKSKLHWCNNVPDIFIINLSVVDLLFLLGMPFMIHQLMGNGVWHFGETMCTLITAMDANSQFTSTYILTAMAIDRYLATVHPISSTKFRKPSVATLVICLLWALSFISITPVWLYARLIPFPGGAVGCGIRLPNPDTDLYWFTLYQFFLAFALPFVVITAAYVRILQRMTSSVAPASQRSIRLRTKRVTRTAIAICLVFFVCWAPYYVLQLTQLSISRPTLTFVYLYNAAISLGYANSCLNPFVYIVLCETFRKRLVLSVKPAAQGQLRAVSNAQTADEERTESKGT
How it was run: as §1

Human μ-opioid (MOP) = target: T7, Human μ-opioid (MOP) (Homo sapiens, UniProt P35372); experiment: Radioligand binding, human μ-opioid (MOP) membranes, FlashPlate, [3H]-Naloxone
T7 construct: purchased Perkin Elmer Biosignal
T7 sequence (P35372 whole entry): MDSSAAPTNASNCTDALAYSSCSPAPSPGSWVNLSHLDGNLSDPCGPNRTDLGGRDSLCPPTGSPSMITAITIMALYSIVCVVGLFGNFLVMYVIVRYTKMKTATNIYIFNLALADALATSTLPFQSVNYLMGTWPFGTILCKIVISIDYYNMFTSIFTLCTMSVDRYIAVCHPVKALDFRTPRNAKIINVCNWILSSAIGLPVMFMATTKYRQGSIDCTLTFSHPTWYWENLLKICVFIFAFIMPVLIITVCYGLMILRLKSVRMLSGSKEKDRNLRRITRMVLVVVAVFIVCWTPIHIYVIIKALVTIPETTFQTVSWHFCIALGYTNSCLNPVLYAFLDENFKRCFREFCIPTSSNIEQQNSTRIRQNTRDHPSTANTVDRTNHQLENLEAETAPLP
How it was run: as §1

Human neurokinin (NK1) = target: T8, Human neurokinin (NK1) (Homo sapiens, UniProt P25103); experiment: Radioligand binding, human neurokinin NK1 membranes, filtration, [125I]-Substance P
T8 construct: purchased Perkin Elmer Biosignal
T8 sequence (P25103 whole entry): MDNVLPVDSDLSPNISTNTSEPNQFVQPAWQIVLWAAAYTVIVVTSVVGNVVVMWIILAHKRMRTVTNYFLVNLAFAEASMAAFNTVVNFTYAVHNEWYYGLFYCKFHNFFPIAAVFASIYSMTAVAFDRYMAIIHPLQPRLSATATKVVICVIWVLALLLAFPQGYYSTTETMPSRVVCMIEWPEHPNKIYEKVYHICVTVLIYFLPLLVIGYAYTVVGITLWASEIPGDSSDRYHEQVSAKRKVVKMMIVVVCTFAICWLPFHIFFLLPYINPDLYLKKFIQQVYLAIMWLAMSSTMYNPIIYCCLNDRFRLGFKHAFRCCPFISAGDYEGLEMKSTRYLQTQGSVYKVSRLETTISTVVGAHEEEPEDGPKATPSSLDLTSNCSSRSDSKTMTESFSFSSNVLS
How it was run: as §2

[2] = target: T9, Human neuropeptide Y (NPY-Y1) (Homo sapiens, UniProt P25929); experiment: Radioligand binding, human neuropeptide Y NPY-Y1 membranes, FlashPlate, [125I]-PYY
T9 construct: purchased Perkin Elmer Biosignal
T9 sequence (P25929 1-384): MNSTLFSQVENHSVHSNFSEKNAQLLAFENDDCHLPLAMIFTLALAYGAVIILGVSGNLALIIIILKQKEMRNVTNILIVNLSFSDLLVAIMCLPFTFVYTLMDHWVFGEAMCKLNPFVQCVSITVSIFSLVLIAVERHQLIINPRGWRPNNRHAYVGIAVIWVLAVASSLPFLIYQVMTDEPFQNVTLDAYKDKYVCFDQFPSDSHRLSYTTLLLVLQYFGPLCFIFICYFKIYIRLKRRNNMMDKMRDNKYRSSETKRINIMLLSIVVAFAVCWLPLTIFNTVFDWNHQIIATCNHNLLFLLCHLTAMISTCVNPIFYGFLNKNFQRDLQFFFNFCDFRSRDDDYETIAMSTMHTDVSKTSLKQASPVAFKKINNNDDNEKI
How it was run: as §1

Human opioid (ORL1) = target: T10, Human opioid (ORL1) (Homo sapiens, UniProt P41146); experiment: Radioligand binding, human opioid ORL1 membranes, FlashPlate, [125I]-Nociceptin
T10 construct: purchased Perkin Elmer Biosignal
T10 sequence (P41146 whole entry): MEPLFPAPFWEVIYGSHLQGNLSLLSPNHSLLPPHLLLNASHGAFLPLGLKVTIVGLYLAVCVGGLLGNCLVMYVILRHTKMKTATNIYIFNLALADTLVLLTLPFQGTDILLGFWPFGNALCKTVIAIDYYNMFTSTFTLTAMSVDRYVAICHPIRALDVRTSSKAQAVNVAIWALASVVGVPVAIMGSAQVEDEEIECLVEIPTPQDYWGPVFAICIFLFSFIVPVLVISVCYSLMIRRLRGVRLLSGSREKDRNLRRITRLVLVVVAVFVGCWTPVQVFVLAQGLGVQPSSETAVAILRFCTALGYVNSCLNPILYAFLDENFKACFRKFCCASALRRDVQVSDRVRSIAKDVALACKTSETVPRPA
How it was run: as §1

Mouse urotensin (mUR2) = target: T11, Mouse urotensin (mUR2) (Mus musculus, UniProt Q8VIH9); experiment: Radioligand binding, mouse urotensin mUR2 membranes, FlashPlate, [125I]-Urotensin II
T11 construct: purchased Perkin Elmer Biosignal
T11 sequence (Q8VIH9 1-385): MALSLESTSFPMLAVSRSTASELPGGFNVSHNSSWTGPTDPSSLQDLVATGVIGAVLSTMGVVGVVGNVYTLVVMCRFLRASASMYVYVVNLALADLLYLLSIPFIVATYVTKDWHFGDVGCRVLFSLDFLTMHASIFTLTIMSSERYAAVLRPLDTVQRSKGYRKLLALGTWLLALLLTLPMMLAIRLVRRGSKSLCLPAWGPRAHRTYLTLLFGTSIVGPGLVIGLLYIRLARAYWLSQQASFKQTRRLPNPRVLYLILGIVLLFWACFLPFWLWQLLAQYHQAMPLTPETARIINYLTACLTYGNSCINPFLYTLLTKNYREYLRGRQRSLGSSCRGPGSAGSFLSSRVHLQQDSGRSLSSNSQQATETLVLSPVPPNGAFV
How it was run: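 Cloned mouse urotensin (mUR2) receptor membranes from Perkin Elmer Biosignal were immobilized in FlashPlate microplates using a proprietary coating. Each well got 19.5 μl buffer, then 0.5 μl of DMSO, reference ligand, or compound. Adding 5 μl of [125I]-Urotensin II, diluted to 5× final concentration in binding buffer, started binding. Plates were sealed with TopSeal-A and incubated 1 hour at room temperature in the dark. Wells were counted for 30 seconds each on a TopCount after a 60-second delay, and percentage inhibition was calculated.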

T1 sequence (P41143 whole entry): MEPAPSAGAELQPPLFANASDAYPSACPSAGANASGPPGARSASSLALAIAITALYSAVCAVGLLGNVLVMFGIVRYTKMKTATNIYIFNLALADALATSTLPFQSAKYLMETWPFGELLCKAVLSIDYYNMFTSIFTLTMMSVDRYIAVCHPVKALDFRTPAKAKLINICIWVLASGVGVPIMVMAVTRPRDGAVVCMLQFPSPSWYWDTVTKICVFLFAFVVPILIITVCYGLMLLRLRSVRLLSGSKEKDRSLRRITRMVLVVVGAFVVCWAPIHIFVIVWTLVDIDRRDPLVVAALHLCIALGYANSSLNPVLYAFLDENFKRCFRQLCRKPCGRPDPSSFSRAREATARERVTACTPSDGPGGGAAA

Compound | A1 radioligand binding, percentage inhibition (Human δ-opioid (DOP); [3H]-Bremazocine) | A2 radioligand binding, percentage inhibition (Human κ-Opioid (KOP); [3H]-Diprenorphine) | A3 radioligand binding, percentage inhibition (Human Melanocortin (MC3); [125I]-NDP-αMSH) | A4 radioligand binding, percentage inhibition (Human Melanocortin (MC4); [125I]-NDP-αMSH) | A5 radioligand binding, percentage inhibition (Human melanocortin (MC5); [125I]-NDP-αMSH) | A6 radioligand binding, percentage inhibition ([1]; [125I]-S36057) | A7 radioligand binding, percentage inhibition (Human μ-opioid (MOP); [3H]-Naloxone) | A8 radioligand binding, percentage inhibition (Human neurokinin (NK1); [125I]-Substance P) | A9 radioligand binding, percentage inhibition ([2]; [125I]-PYY) | A10 radioligand binding, percentage inhibition (Human opioid (ORL1); [125I]-Nociceptin) | A11 radioligand binding, percentage inhibition (Mouse urotensin (mUR2); [125I]-Urotensin II) | other results
CO[C@H]1[C@H](O)[C@@H](COCc2ccccc2)OC(OCCNC(=N)N)[C@@H]1NC(=O)c1c[nH]c2ccccc12 (stereo partly shown) [compound 125] | − (“−” indicates less than 50% inhibition at 10 μM) | − (“−” indicates less than 50% inhibition at 10 μM) | − (“−” indicates less than 50% inhibition at 10 μM) | − (“−” indicates less than 50% inhibition at 10 μM) | − (“−” indicates less than 50% inhibition at 10 μM) | − (“−” indicates less than 50% inhibition at 10 μM) | − (“−” indicates less than 50% inhibition at 10 μM) | + (“+” indicates greater than 50% inhibition at 10 μM) | − (“−” indicates less than 50% inhibition at 10 μM) | − (“−” indicates less than 50% inhibition at 10 μM) | − (“−” indicates less than 50% inhibition at 10 μM) | 
COC[C@H]1OC(OCCc2ccccc2)[C@H](NC(=O)CNC(=N)N)[C@@H](OCc2ccc(Cl)cc2)[C@@H]1O (stereo partly shown) [compound 48] |  |  |  |  |  |  |  |  |  |  |  | A1 radioligand binding inhibition (Human δ-opioid (DOP); human δ-opioid (DOP) membranes): − (“−” indicates less than 50% inhibition at 10 μM); A2 radioligand binding inhibition (Human κ-Opioid (KOP); human κ-opioid (KOP) membranes): − (“−” indicates less than 50% inhibition at 10 μM); A3 radioligand binding inhibition (Human Melanocortin (MC3); human melanocortin MC3 membranes): − (“−” indicates less than 50% inhibition at 10 μM); A4 radioligand binding inhibition (Human Melanocortin (MC4); human melanocortin MC4 membranes): + (“+” indicates greater than 50% inhibition at 10 μM); A5 radioligand binding inhibition (Human melanocortin (MC5); human melanocortin MC5 membranes): + (“+” indicates greater than 50% inhibition at 10 μM); A6 radioligand binding inhibition ([1]; human MCH1 membranes): + (“+” indicates greater than 50% inhibition at 10 μM); A7 radioligand binding inhibition (Human μ-opioid (MOP); human μ-opioid (MOP) membranes): − (“−” indicates less than 50% inhibition at 10 μM); A8 radioligand binding inhibition (Human neurokinin (NK1); human neurokinin NK1 membranes): − (“−” indicates less than 50% inhibition at 10 μM); A9 radioligand binding inhibition ([2]; human NPY-Y1 membranes): − (“−” indicates less than 50% inhibition at 10 μM); A10 radioligand binding inhibition (Human opioid (ORL1); human ORL1 membranes): − (“−” indicates less than 50% inhibition at 10 μM); A11 radioligand binding inhibition (Mouse urotensin (mUR2); mouse urotensin mUR2 membranes): − (“−” indicates less than 50% inhibition at 10 μM)
CSC1O[C@H](COCc2ccccc2)[C@@H](O)[C@@H](OCc2ccc(-c3ccccc3)cc2)[C@H]1NC(=O)CCN (stereo partly shown) [compound 285] |  |  |  |  |  |  |  |  |  |  |  | A1: inhibition of radioligand binding, human δ-opioid (DOP) (Human δ-opioid (DOP); [3H]-Bremazocine): − (“−” indicates less than 50% inhibition at 10 μM); A2: inhibition of radioligand binding, human κ-opioid (KOP) (Human κ-Opioid (KOP); [3H]-Diprenorphine): − (“−” indicates less than 50% inhibition at 10 μM); A3: inhibition of radioligand binding, human melanocortin (MC3) (Human Melanocortin (MC3); [125I]-NDP-αMSH): − (“−” indicates less than 50% inhibition at 10 μM); A4: inhibition of radioligand binding, human melanocortin (MC4) (Human Melanocortin (MC4); [125I]-NDP-αMSH): − (“−” indicates less than 50% inhibition at 10 μM); A5: inhibition of radioligand binding, human melanocortin (MC5) (Human melanocortin (MC5); [125I]-NDP-αMSH): − (“−” indicates less than 50% inhibition at 10 μM); A6: inhibition of radioligand binding, human melanin-concentrating hormone (MCH1) ([1]; [125I]-S36057): − (“−” indicates less than 50% inhibition at 10 μM); A7: inhibition of radioligand binding, human μ-opioid (MOP) (Human μ-opioid (MOP); [3H]-Naloxone): − (“−” indicates less than 50% inhibition at 10 μM); A8: inhibition of radioligand binding, human neurokinin (NK1) (Human neurokinin (NK1); [125I]-Substance P): + (“+” indicates greater than 50% inhibition at 10 μM); A9: inhibition of radioligand binding, human neuropeptide Y (NPY-Y1) ([2]; [125I]-PYY): − (“−” indicates less than 50% inhibition at 10 μM); A10: inhibition of radioligand binding, human opioid (ORL1) (Human opioid (ORL1); [125I]-Nociceptin): − (“−” indicates less than 50% inhibition at 10 μM); A11: inhibition of radioligand binding, mouse urotensin (mUR2) (Mouse urotensin (mUR2); [125I]-Urotensin II): − (“−” indicates less than 50% inhibition at 10 μM)
CO[C@H]1[C@H](O)[C@@H](COCc2ccc3ccccc3c2)OC(OCCc2ccccc2)[C@@H]1NC(=O)CCNC(=N)N (stereo partly shown) [compound 114] | − (“−” indicates less than 50% inhibition at 10 μM) | + (“+” indicates greater than 50% inhibition at 10 μM) | − (“−” indicates less than 50% inhibition at 10 μM) | + (“+” indicates greater than 50% inhibition at 10 μM) | + (“+” indicates greater than 50% inhibition at 10 μM) | − (“−” indicates less than 50% inhibition at 10 μM) | − (“−” indicates less than 50% inhibition at 10 μM) | + (“+” indicates greater than 50% inhibition at 10 μM) | − (“−” indicates less than 50% inhibition at 10 μM) | − (“−” indicates less than 50% inhibition at 10 μM) | − (“−” indicates less than 50% inhibition at 10 μM) | 
CO[C@H]1[C@H](O)[C@@H](COCc2cccc(O)c2)OC(OCCc2ccccc2)[C@@H]1NC(=O)CCCNC(=N)N (stereo partly shown) [compound 161] | − (“−” indicates less than 50% inhibition at 10 μM) | − (“−” indicates less than 50% inhibition at 10 μM) | − (“−” indicates less than 50% inhibition at 10 μM) | − (“−” indicates less than 50% inhibition at 10 μM) | − (“−” indicates less than 50% inhibition at 10 μM) | − (“−” indicates less than 50% inhibition at 10 μM) | − (“−” indicates less than 50% inhibition at 10 μM) | + (“+” indicates greater than 50% inhibition at 10 μM) | − (“−” indicates less than 50% inhibition at 10 μM) | − (“−” indicates less than 50% inhibition at 10 μM) | − (“−” indicates less than 50% inhibition at 10 μM) | 

— patent US20080009418A1, “Selective Inhibitors” (Alchemia LTD., priority 2004, published 2008)
